Assay results reported in patent publication US5707620A (priority 1995, dated 1998).
“Also recorded” adds a separate entry of the source. *1 amine or outer side, *2 acyl side, *3 side chain or, on linkers, in order; H or OH if unused. Where a SMILES comes first, the peptide text is derived from it. Where no end group is shown, it is not given here. [ ]: non-standard residue; d: D form. The star is where a group is joined. pNA = O=[N+]([O-])c1ccc(N*)cc1; Tos = Cc1ccc(S(=O)(=O)*)cc1; CO = O=C([*:1])[*:2]

Columns and labels:
[1] = system: Human plasma; conditions: in vivo
[2] = target: T1, Lys-gingipain (Porphyromonas gingivalis, UniProt B2RLK2, A715G/D467N/G568E/I573V/L455V); type: biochemical
[3] = system: Arg-gingipain; type: biochemical, Porphyromonas gingivalis
[4] = system: Arg-gingipain; conditions: cited from earlier work
[5] = target: T1, Lys-gingipain; type: biochemical; remark: listed apart in the source
[6] = system: sheep red blood cells; type: cell-based
[7] = target: T1, Lys-gingipain; type: biochemical; remark: listed apart in the source
[8] = system: anti-protein antibodies; conditions: rabbit, in vivo
[9] = system: anti-peptide antibody; conditions: rabbit, in vivo

c1cnc2c(c1)ccc1cccnc12
effect on VPE by Lys-gingipain complex-treated human plasma [1]: increased

CC(C)[C@H](NC(=O)[C@H](CCCNC(=N)N)NC(=O)N[C@@H](Cc1ccccc1)C(=O)O)C(=O)N[C@H](C=O)CCCNC(=N)N [Antipain] ({Phe-CO}-Arg-Val-Arg-aldehyde)
% Activity [2]: 98%
inhibition of Lys-gingipain activity (in words) [2]: failed to inhibit; also recorded: not sensitive to inhibition; also recorded: resistant to inhibition
inhibition of Arg-gingipain (in words) [3]: effective inhibitors

CC(C)C[C@H](NC(=O)[C@H]1O[C@@H]1C(=O)O)C(=O)NCCCCN=C(N)N [E-64, trans-epoxysuccinyl-L-leucylamide-(4-guanidino) butane]
% Activity [2]: 100%
inhibition of Lys-gingipain activity (in words) [2]: failed to inhibit Lys-gingipain at all; also recorded: not sensitive to inhibition; also recorded: resistant to inhibition
inhibition of Arg-gingipain, previously shown [4]: inhibit Arg-gingipain, but not in the normal equimolar manner

O=C(O)CN(CCN(CC(=O)O)CC(=O)O)CC(=O)O [EDTA, ethylenediamine-tetraacetic acid]
% Activity [2]: 90%
inhibition of Lys-gingipain activity (in words) [2]: failed to inhibit; also recorded: not sensitive to inhibition; also recorded: resistant to inhibition; also recorded: insensitive
inhibition of Arg-gingipain (in words) [3]: effective inhibitors

NC(N)=NCCCC(NC(=O)C1CCCN1C(=O)C(N)Cc1ccccc1)C(=O)CCl (stereo not drawn) [FPRCK, Phe-Pro-Arg-CK]
% Activity [2]: 5%
inhibition of Lys-gingipain activity (in words) [2]: effective inhibitors of both enzymes; also recorded: sensitivity
inhibition of Arg-gingipain (in words) [3]: effective inhibitors of both enzymes

NCC(=O)NCC(=O)O [Gly--Gly, Glycyl-glycine] (H-Gly-Gly-OH)
% Activity [2]: 50%
inhibition of Lys-gingipain activity (in words) [2]: inhibitory; also recorded: inhibited
stimulation of hydrolysis of Bz-L-Arg-pNa by Arg-gingipain [3]: strongly stimulates

CC(C)C[C@H](NC(=O)[C@H](N)C(C)C)C(=O)N[C@@H](CCCCN)C(=O)Nc1ccc([N+](=O)[O-])cc1 [HD--Val--Leu--Lys--pNa, D-Val-Leu-Lys-pNA] (H-[dV]-Leu-Lys-pNA)
Vmax [5]: 133 mmol/min

CC(C)[C@@H](N)C(=O)N[C@@H](Cc1ccccc1)C(=O)N[C@@H](CCCCN)C(=O)Nc1ccc([N+](=O)[O-])cc1 [HD--Val--Phe--Lys--pNa, H-D-Val-Phe-Lys-pNa] (H-[dV]-Phe-Lys-pNA)
Vmax [5]: 180 mmol/min

NC(=O)CI [Iodoacetamide]
inhibition of Lys-gingipain activity (in words) [2]: inhibited; also recorded: sensitivity

O=C(O)CI [Iodoacetate]
inhibition of Lys-gingipain activity (in words) [2]: inhibited; also recorded: sensitivity

CC(=O)N[C@@H](CC(C)C)C(=O)N[C@@H](CC(C)C)C(=O)N[C@H](C=O)CCCNC(=N)N [Leupeptin]
% Activity [2]: 100%
inhibition of Lys-gingipain activity (in words) [2]: failed to inhibit; also recorded: not sensitive to inhibition; also recorded: resistant to inhibition; also recorded: insensitive
inhibition of Arg-gingipain (in words) [3]: effective inhibitors

CCN1C(=O)C=CC1=O [N-Ethylmaleimide]
inhibition of Lys-gingipain activity (in words) [2]: inhibited

CN1C(=O)C=CC1=O [N-methylmaleimide]
inhibition of Lys-gingipain activity (in words) [2]: sensitivity

Cc1ccc(S(=O)(=O)NCC(=O)N2CCC[C@H]2C(=O)N[C@@H](CCCCN)C(=O)Nc2ccc([N+](=O)[O-])cc2)cc1 [N-p-tosyl-Gly--Pro--Lys--pNa, N-p-tosyl-Gly-Pro-Lys-pNa] (Tos-Gly-Pro-Lys-pNA)
Vmax [5]: 215 mmol/min
ranking as substrate by ratio Vmax/Km [5]: best substrate

O=S(=O)(F)Cc1ccccc1 [Phenylmethylsulfonyl fluoride]
% Activity [2]: 100%
inhibition of Lys-gingipain activity (in words) [2]: not sensitive to inhibition; also recorded: resistant to inhibition

Cc1ccc(S(=O)(=O)N[C@@H](CCCCN)C(=O)CCl)cc1 [TLCK, tosyl-L-lysine chloromethyl ketone]
Hemagglutinating Titer of Gingipain-1 with effector [6]: NHA
effect on the hemagglutinating activity of purified fractions (in words) [6]: neither did treatment by the irreversible proteinase inhibitor TLCK
% Activity [2]: 0%
inhibition of Lys-gingipain activity (in words) [2]: effective inhibitors of both enzymes; also recorded: sensitivity
inhibition of Arg-gingipain (in words) [3]: effective inhibitors of both enzymes

NCCCC[C@H](NC(=O)OCc1ccccc1)C(=O)Nc1ccc([N+](=O)[O-])cc1 [Z--L--Lys--pNa, Z-L-Lysine-p-Nitroanilide]
Vmax [5]: 40 mmol/min

[Cl-].[Cl-].[Zn+2] [ZnCl2]
inhibition of Lys-gingipain activity (in words) [2]: failed to inhibit
inhibition of Arg-gingipain (in words) [3]: effective inhibitors

N=C(N)NCCC[C@H](N)C(=O)O [arginine]
Hemagglutinating Titer of Culture fluid with effector [6]: NHA
Hemagglutinating Titer of Gingipain-1 with effector [6]: NHA
Hemagglutinating Titer of HGP with effector [6]: NHA
Hemagglutinating Titer of Lys-gingipain with effector [6]: NHA
effect on the hemagglutinating activity of purified fractions (in words) [6]: inhibited by arginine

N[C@@H](CS)C(=O)O [cysteine]
Hemagglutinating Titer of Gingipain-1 with effector [6]: NHA
effect on the hemagglutinating activity of purified fractions (in words) [6]: no effect
concentration required for full activity [7]: 50 mM
effect on enzyme [7]: denatured
effectiveness as reducing agent for activation of the enzyme [7]: most effective reducing agent
time after which activity could be detected [7]: 30 s
time to full activation [7]: 5 min

NCCCC[C@H](N)C(=O)O [lysine]
Hemagglutinating Titer of Gingipain-1 with effector [6]: NHA

N=C(N)c1ccc(N)cc1 [p-Aminobenzamidine]
% Activity [2]: 100%
inhibition of Lys-gingipain activity (in words) [2]: failed to inhibit
inhibition of Arg-gingipain (in words) [3]: effective inhibitors

MAP-attached peptide: first 15 N-Terminal amino acids of 60 kDa catalytic subunit attached to the multiple antigen peptide (MAP) resin (DVYTDHGDLYNTPVR; not fully specified)
antibody response against the protein [8]: quite low
anti-peptide antibody titer [9]: high

B1: soybean trypsin inhibitor: soybean trypsin inhibitor (protein, UniProt P01070 25-205, looked up)
Trypsin inhibitor A: DFVLDNEGNPLENGGTYYILSDITAFGGIRAAPTGNERCPLTVVQSRNELDKGIGTIISSPYRIRFIAEGHPLSLKFDSFAVIMLCVGIPTEWSVVEDLPEGPAVKIGENKDAMDGWFRLERVSDDEFNNYKLVFCPQQAEDDKCGDIGISIDHDDGTRRLVVSKNKPLVVQFQKLDKESL
effect on VPE by Lys-gingipain complex-treated human plasma [1]: inhibited
